“And” between values parts separate entries of the source, which are not always exact repeats. Identical values can stand only once.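 1) Cells in 96-well plates. 2) Compound, 48 h, 5 concentrations. 3) Linear interpolation between surrounding doses. 4) Unreached endpoint = highest concentration. The concentration for 50% growth inhibition is given as GI50.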 The source made the active and inactive calls. No stated cut-off is given here; in the data, active = GI50 up to about 1.1 µM and inactive = higher.

Among the test systems are SK-OV-3; MOLT-4; SK-MEL-5; DU-145; CCRF-CEM; K562; EKVX; CAKI-1; SNB-19; OVCAR-5; BT-549; NCI-H460; Malme-3M; A498; UO-31; SK-MEL-2; KM12; SF-295; 786-0; HL-60.
Common to all, as to assay: NCI anticancer screen, dose series, 48 h

Consider `COC(=O)[C@@H]1[C@@H]2NC(=S)N[C@@]1(C)Oc1ccccc12`, for which the GI50 was 47.8 µM (inactive) with SK-OV-3; 0.324 µM (active) in the experiment with MOLT-4; 42 µM (inactive) with SK-MEL-5; 36.3 µM (inactive) in the experiment with DU-145; 61.9 µM (inactive) in the experiment with CCRF-CEM; 29.5 µM (inactive) in the experiment with K562. In addition, the GI50 is 52.5 µM (inactive) in the experiment with EKVX; 76.9 µM (inactive) in the experiment with CAKI-1; 49 µM (inactive) in the experiment with SNB-19; 60.4 µM (inactive) in the experiment on OVCAR-5; 83.6 µM (inactive) in the experiment on BT-549; 44.2 µM (inactive) with NCI-H460. Moreover, the GI50 was 52 µM (inactive) in the experiment with Malme-3M; > 100 µM (inactive) in the experiment on A498; > 100 µM (inactive) in the experiment with UO-31; > 100 µM (inactive) in the experiment with SK-MEL-2; 29.7 µM (inactive) in the experiment with KM12; 38.5 µM (inactive) in the experiment on SF-295. Moreover, the GI50 in the experiment on 786-0 was 75.7 µM (inactive).
For the compound `Cc1cc(-c2nc3ccc(F)cc3s2)ccc1N`, the GI50 is > 100 µM (inactive) in the experiment with MOLT-4; 41.4 µM (inactive) with SK-MEL-5; > 100 µM (inactive) with DU-145; 9.46 µM (inactive) in the experiment on CCRF-CEM; > 100 µM (inactive) with K562; 56.5 µM (inactive) with EKVX. Moreover, the GI50 in the experiment on CAKI-1 was > 100 µM (inactive); with SNB-19, > 100 µM (inactive); in the experiment with OVCAR-5 it was > 100 µM (inactive); in the experiment on BT-549 it was > 100 µM (inactive); in the experiment on Malme-3M it was > 100 µM (inactive); in the experiment with A498, 2.55 µM (inactive). The GI50 in the experiment with UO-31, in the experiment on SK-MEL-2, in the experiment on KM12, with SF-295 and in the experiment with 786-0 was > 100 µM (inactive) throughout.
Consider `O=C(/C=C/c1ccc2c(c1)OCO2)c1ccccc(=O)c1O`, for which the GI50 is 6.27 µM (inactive) in the experiment on MOLT-4; 7.66 µM (inactive) with SK-MEL-5; 17.3 µM (inactive) in the experiment on DU-145; 0.0376 µM (active) with CCRF-CEM; 6.84 µM (inactive) with K562; 20.7 µM (inactive) in the experiment on EKVX. The GI50 is 5.98 µM (inactive) in the experiment on CAKI-1; 8.71 µM (inactive) in the experiment on SNB-19; 15.7 µM (inactive) in the experiment with BT-549; 3.28 µM (inactive) in the experiment with NCI-H460; 23.3 µM (inactive) with Malme-3M; 29.9 µM (inactive) with A498. The GI50 is 13.6 µM (inactive) in the experiment on UO-31, 20.8 µM (inactive) in the experiment with SK-MEL-2, 8.43 µM (inactive) with KM12 and 8.32 µM (inactive) in the experiment on 786-0.
On to `Cc1ccc(S(=O)(=O)SC/C=C\CSS(=O)(=O)c2ccc(C)cc2)cc1`, for which the GI50 was 43.5 µM (inactive) and 55.8 µM (inactive) in the experiment on SK-OV-3; 27.6 µM (inactive) and 29.3 µM (inactive) in the experiment with SK-MEL-5; 16.4 µM (inactive) in the experiment on DU-145; 0.262 µM (active) with CCRF-CEM; > 92.7 µM (inactive) and 53.6 µM (inactive) in the experiment on EKVX; 21.4 µM (inactive) and 18.2 µM (inactive) with CAKI-1. The GI50 with SNB-19 is 34.2 µM (inactive) and 29.6 µM (inactive); in the experiment on BT-549, 9.59 µM (inactive); in the experiment with NCI-H460, 30.3 µM (inactive) and 35.6 µM (inactive); in the experiment with Malme-3M, 34.7 µM (inactive) and 20.2 µM (inactive); in the experiment with A498 it was 57.1 µM (inactive) and 49.4 µM (inactive); in the experiment on UO-31, 55.2 µM (inactive). Further, the GI50 was 47 µM (inactive) in the experiment with SK-MEL-2; 14.7 µM (inactive) and 17.2 µM (inactive) with KM12; 19.1 µM (inactive) and 37.7 µM (inactive) with SF-295; 12.2 µM (inactive) and 17.9 µM (inactive) in the experiment with 786-0.
Regarding `CCN(CC)C(=S)SS(=O)(=O)c1ccc(F)cc1`, the GI50 in the experiment on SK-OV-3 was > 100 µM (inactive); in the experiment on SK-MEL-5, 7.41 µM (inactive); in the experiment with DU-145, 37.9 µM (inactive); with K562 it was 23.2 µM (inactive); with EKVX, > 100 µM (inactive); in the experiment with CAKI-1, 41 µM (inactive). Moreover, the GI50 in the experiment with SNB-19 was > 100 µM (inactive); in the experiment on OVCAR-5 it was > 100 µM (inactive); in the experiment on BT-549, 46.1 µM (inactive); in the experiment on NCI-H460, 42.9 µM (inactive); in the experiment with Malme-3M, 19.9 µM (inactive); in the experiment on A498 it was > 100 µM (inactive). Moreover, the GI50 in the experiment with UO-31 is 27.7 µM (inactive); in the experiment on SK-MEL-2, 56.4 µM (inactive); in the experiment with KM12 it was 17.8 µM (inactive); with SF-295 it was 75.3 µM (inactive); with 786-0 it was 73.3 µM (inactive).
Turning to `Nc1nc(Nc2ccc(Cl)cc2)sc1C(=O)c1cccs1`, the GI50 in the experiment with SK-OV-3 is 22.9 µM (inactive); in the experiment with MOLT-4 it was > 100 µM (inactive); in the experiment with SK-MEL-5 it was 38.2 µM (inactive); with DU-145 it was 78.9 µM (inactive); with CCRF-CEM it was 53.7 µM (inactive); in the experiment on EKVX, 20 µM (inactive). For the same compound, the GI50 was 19.9 µM (inactive) in the experiment on SNB-19; > 100 µM (inactive) in the experiment on OVCAR-5; 40.5 µM (inactive) in the experiment on BT-549; 17.9 µM (inactive) with NCI-H460; 99.3 µM (inactive) in the experiment on Malme-3M; 19.1 µM (inactive) in the experiment on A498. Besides, the GI50 was 17 µM (inactive) in the experiment on UO-31; 98.9 µM (inactive) in the experiment with SK-MEL-2; > 100 µM (inactive) with KM12; > 100 µM (inactive) in the experiment on HL-60; 11.8 µM (inactive) in the experiment with 786-0.
Take `CCC/C(Cl)=N\OC(=O)Nc1ccc(F)c([N+](=O)[O-])c1`: the GI50 in the experiment on SK-OV-3 was 24.6 µM (inactive); with MOLT-4 it was 3.41 µM (inactive); in the experiment on SK-MEL-5 it was 16.7 µM (inactive); in the experiment on DU-145, 14.7 µM (inactive); with CCRF-CEM, 3.74 µM (inactive); in the experiment on K562, 5.32 µM (inactive). Further, the GI50 was 16.2 µM (inactive) in the experiment on EKVX; 4.3 µM (inactive) in the experiment with CAKI-1; 15.2 µM (inactive) in the experiment on SNB-19; 20.4 µM (inactive) in the experiment with OVCAR-5; 10.2 µM (inactive) with BT-549; 12.5 µM (inactive) with NCI-H460. For the same compound, the GI50 was 10.9 µM (inactive) in the experiment with Malme-3M; 21.5 µM (inactive) with A498; 13.7 µM (inactive) with UO-31; 14.3 µM (inactive) in the experiment on SK-MEL-2; 16.7 µM (inactive) with KM12; 33.8 µM (inactive) in the experiment on SF-295. Moreover, the GI50 with 786-0 is 16.8 µM (inactive).
Take `O[C@H]1[C@H](O)[C@@H](O)[C@@]2(O)CC[C@@H]1N2`: the GI50 with SK-OV-3, in the experiment on MOLT-4, in the experiment with SK-MEL-5, with DU-145, with CCRF-CEM and in the experiment on K562 was > 100 µM (inactive) in each case. In addition, the GI50 with EKVX, in the experiment on CAKI-1, in the experiment with SNB-19, with OVCAR-5, with BT-549 and in the experiment with NCI-H460 was > 100 µM (inactive) each time. For the same compound, the GI50 with Malme-3M, in the experiment on A498, in the experiment on UO-31, with SK-MEL-2, with KM12 and in the experiment on SF-295 was > 100 µM (inactive) in each case. For the same compound, the GI50 in the experiment on 786-0 was > 100 µM (inactive).
In the case of `O=C(O)CCC(/N=C(\C(=N\C(CCC(=O)O)C(=O)O)c1ccccc1)c1ccccc1)C(=O)O` (configuration not stated), the GI50 in the experiment on SK-OV-3, in the experiment on MOLT-4, in the experiment on DU-145, in the experiment with K562, with EKVX and in the experiment with SNB-19 was > 100 µM (inactive) throughout. In addition, the GI50 in the experiment on OVCAR-5 is > 100 µM (inactive); with BT-549 it was 90.2 µM (inactive); in the experiment with NCI-H460, > 100 µM (inactive); with A498, > 100 µM (inactive); with UO-31 it was > 100 µM (inactive); in the experiment on SK-MEL-2 it was > 100 µM (inactive). For the same compound, the GI50 with KM12, in the experiment with SF-295 and in the experiment on 786-0 was > 100 µM (inactive) throughout.
With `CC(=O)Nc1ccc2cc3[nH]c4cc(NC(C)=O)ccc4c3nc2c1`, the GI50 in the experiment with SK-OV-3 was > 100 µM (inactive); in the experiment on MOLT-4, 24.9 µM (inactive); in the experiment on SK-MEL-5 it was > 100 µM (inactive); in the experiment on DU-145, > 100 µM (inactive); in the experiment with CCRF-CEM it was 38 µM (inactive); with K562, 77.1 µM (inactive). For the same compound, the GI50 in the experiment with EKVX, in the experiment with CAKI-1, in the experiment with SNB-19, with OVCAR-5, in the experiment with BT-549 and with NCI-H460 was > 100 µM (inactive) each time. For the same compound, the GI50 in the experiment on Malme-3M is > 100 µM (inactive); with A498, > 100 µM (inactive); with UO-31 it was > 100 µM (inactive); in the experiment with SK-MEL-2 it was > 100 µM (inactive); with KM12, 21.7 µM (inactive); in the experiment with SF-295 it was > 100 µM (inactive). The GI50 in the experiment on 786-0 is > 100 µM (inactive).
Consider `Oc1c(OCc2nnc(CCCCCCCCc3nnc(COc4ccc5ccccc5c4O)n3Nc3ccccc3)n2Nc2ccccc2)ccc2ccccc12`, for which the GI50 in the experiment on SK-OV-3 is 9.77 µM (inactive); in the experiment on MOLT-4, 12.7 µM (inactive); in the experiment with SK-MEL-5, 1.29 µM (inactive); with DU-145, 14.6 µM (inactive); in the experiment on K562, 0.515 µM (active); in the experiment on EKVX, 11.6 µM (inactive). Further, the GI50 was 0.676 µM (active) in the experiment with CAKI-1; 11.8 µM (inactive) with SNB-19; 5.47 µM (inactive) with OVCAR-5; 8.73 µM (inactive) in the experiment with BT-549; 1.26 µM (inactive) in the experiment with NCI-H460; 9.33 µM (inactive) with Malme-3M. Besides, the GI50 in the experiment with A498 was 16.1 µM (inactive); in the experiment on UO-31, 2.58 µM (inactive); in the experiment on SK-MEL-2, 9.12 µM (inactive); in the experiment with KM12, 3 µM (inactive); in the experiment on SF-295 it was 0.301 µM (active); in the experiment with 786-0, 13.3 µM (inactive).
